Several values for one entry are separate records, joined by “and”; a condition that tells them apart may be missing. Identical values can stand only once.
Tests used:
[1] = tested on: Eurasian watermilfoil; assay: Pretreatment aquatic weed bioassay: sampled plants exposed to fluridone, pigments assayed; type: in vivo
Description: (§1) As disclosed above, fluridone treatments of the invention are integrated with assays to determine the efficacy of fluridone on the local plant population in the body of water under treatment, and desirably also with assays to determine the concentration of fluridone existing during the treatment program. For example, in the present invention, an aquatic weed bioassay can be used to determine the pre-treatment susceptibility of a target plant population to fluridone. Such an assay may for instance involve the collection of meristematic stem tissue or vegetative propagules at selected sites within a body of water to be treated. The sites of collection may be logged, for instance using coordinates defined by the global positioning satellite (GPS) system. […]
(§2) At the completion of the growth period, all new growth from the plants can be excised from the original plant tissue. […] After the extraction, the extracted sample is assayed to quantitate the levels of pigments, for example chlorophyll and/or β-carotene. […] For example, spectrophotometric absorbance measurements for chlorophyll may be taken at 645 and/or 662 nm; for β-carotene may be taken at 445 nm; and for phytoene may be taken at 287 and/or 347 nm. These measured values may be compared to control data (e.g. including curves generated using samples of known concentration) to determine the level of these substances in the samples. […]

[2] = tested on: aquatic weeds; settings: cited from earlier work
[3] = tested on: hydrilla; assay: Pretreatment aquatic weed bioassay: apical tips grown in fluridone-treated medium, pigments of new growth assayed; type: in vivo, Hydrilla verticillata
Description: as §1, §2

[4] = tested on: hydrilla; assay: Field treatment of a water body with plant biochemical and water residue monitoring; type: in vivo, Hydrilla verticillata
Description: (§3) Preferred methods of the present invention also involve plant biochemical testing conducted during the treatment. Thus, during the period in which a fluridone level is being maintained in the body of water under treatment, aquatic weed samples are obtained from the water body. This may involve, for example, collection of growing apical meristems from selected sites in the water body, preferably along with matched water samples from the same sites. Again, the sample sites can be logged using GPS or another suitable system to assist in future sampling and reference.
(§4) The aquatic weed plant samples can then be assessed to determine the effect of the maintained level of fluridone on the plants. To this end, the samples are first thoroughly washed and weighed. In a typical treatment, 6 to 12 samples per site will be collected. Similar to the discussions above, standard methods are then used to assay the level of pigments such as B-carotene, chlorophyll, and/or other relevant substances such as phytoene, in the tissue. […] The levels can be measured as discussed above using any suitable method such as spectrophotometry or fluorometry and appropriate standard curves. The measured values can then be utilized to determine whether any additional applications of fluridone or other adjustments are necessary to bring concentrations to levels that will be phytotoxic to the local aquatic weed population.
The biochemical assays discussed above, taken during treatment, are preferably used in conjunction with assays of water samples simultaneously taken, to determine the concentration of fluridone in the water body. […] The combination of measured fluridone concentration along with measured effect on plant health provides a particularly powerful method for the management of aquatic weeds in water bodies.
The Spring Creek Arm of Lake Seminole (5000 acres) was treated in May 2000 using a drip system that added fluridone based on flow rates in the river. […] Plant response to the treatment was monitored and threshold water concentrations were determined. […]

[5] = tested on: Eurasian watermilfoil; assay: Field treatment of a lake with fluridone; type: in vivo
Description: as §3
as §4, with “population. […]” for “population.”

Which “threshold concentration of fluridone” value ([1]; Example 3: Eurasian watermilfoil from Wolverine Lake, Michigan, 0, 3, 6, 9, 12, 15 ppb) does the source give for “1-methyl-3phenyl-5-3-(trifluoromethyl)phenyl-4(1H)-pyridinone [fluridone]” here?
Its value is 6 ppb and 9 ppb.

What about the “plant response below threshold” value ([1]; Wolverine Lake Eurasian watermilfoil, 3 ppb) of the same substance?
Its value is “rapid recovery of the plants”.

And the “susceptible concentration, less sensitive species” value ([2]; other species, only higher concentrations)?
Its value is 150 ppb.

What about the “susceptible concentration, more sensitive species” value ([2]; some species, as low as) of the same substance?
Its value is “about 5 ppb”.

And the “threshold concentration of fluridone (pigment concentrations in new growth)” value ([3]; Example 1: hydrilla from 2500-acre Florida lake, 0, 3, 6, 12, 24 ppb, 12-day growth, no enhancement at 12 and 24 ppb)?
The value was 6 ppb.

What about the “lowest rate hydrilla is susceptible to (pretreatment assay)” value ([3]; Spring Creek Arm of Lake Seminole hydrilla) of the same substance?
Its value is 5 ppb.

What about the “weed control result of earlier treatment” value ([4]; Lake Eva, 1999 treatment) of the same substance?
Its value is “very poor control”.

And the “lake concentration relative to control threshold (pigment assay)” value ([4]; Lake Eva, Central Florida, treated April 2000, target rate 15 ppb)?
Its value is “below thresholds required to provide control”.

And the “plant response at downstream sites (plant sampling)” value ([4]; Spring Creek Arm of Lake Seminole, drip system treatment, May 2000)?
The value was “lack of impact at several downstream sites”.

What about the “weed control result of field treatment” value ([5]; Lake McKinney, Minnesota, treated late summer 1999, assessed end of following summer) of the same substance?
The value was “could no longer be found in the lake”.

And the “weed control result of previous field applications” value ([5]; Wolverine Lake, two applications at 5 and 6 ppb in the last 3 years)?
The value was “unsatisfactory results”.

From US20020119891A1, “Integrated methods for control of aquatic weeds” (priority 2001, published 2002)
